Assay results as given in patent US11807693B2 (priority 2014, dated 2023).
Read-outs that look alike come from different tables or passages of the source. Starred links: 1 amine or outer side, 2 acyl side, 3 side chain; linkers in the order of their positions; H or OH if unused. Non-standard residues stand in square brackets, D forms with d. Residues, ends and D or L forms follow the SMILES beside them. *: point of attachment. Oic = O=C(O)[C@@H]1C[C@@H]2CCCC[C@@H]2N1; Phe(4-Cl) = N[C@@H](Cc1ccc(Cl)cc1)C(=O)O; γGlu = O=C(O)[C@H](CCC(=O)[*:2])N[*:1]; 2Nal = N[C@@H](Cc1ccc2ccccc2c1)C(=O)O; NMehArg = CN[C@@H](CCCCNC(=N)N)C(=O)O; dIgl = N[C@@H](C(=O)O)C1Cc2ccccc2C1; NMeR = CN[C@@H](CCCNC(=N)N)C(=O)O; Tridecanoyl = CCCCCCCCCCCCC(=O)*; hArg = N=C(N)NCCCC[C@H](N)C(=O)O; Cha = N[C@@H](CC1CCCCC1)C(=O)O; αMeL = CC(C)C[C@](C)(N)C(=O)O; Tle = CC(C)(C)[C@H](N)C(=O)O; β3hP = O=C(O)C[C@@H]1CCCN1; Nle = CCCC[C@H](N)C(=O)O; Pra = C#CC[C@H](N)C(=O)O; Deg = CCC(N)(CC)C(=O)O; AEEA = NCCOCCOCC(=O)O; Aib = CC(C)(N)C(=O)O

Molecular target: T1, rat APJ receptor (Rattus norvegicus, UniProt Q9JHG3)
T1 construct: expressed in transfected cells
T1 sequence (Q9JHG3 1-377): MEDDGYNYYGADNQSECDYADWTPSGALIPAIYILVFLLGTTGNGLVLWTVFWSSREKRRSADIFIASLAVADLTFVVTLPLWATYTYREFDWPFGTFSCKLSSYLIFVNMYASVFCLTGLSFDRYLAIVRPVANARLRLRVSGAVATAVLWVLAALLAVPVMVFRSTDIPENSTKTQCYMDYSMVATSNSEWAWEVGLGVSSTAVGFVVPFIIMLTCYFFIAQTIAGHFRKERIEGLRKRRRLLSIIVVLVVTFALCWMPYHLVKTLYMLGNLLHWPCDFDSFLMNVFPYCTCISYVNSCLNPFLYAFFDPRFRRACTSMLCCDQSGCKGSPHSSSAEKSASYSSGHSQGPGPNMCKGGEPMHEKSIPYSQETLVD
Test: [35S] GTPγS assay, rat APJ receptor
Type: biochemical
Experimental: The membranes were incubated with modified peptides in the assay buffer. […] Bound [^35S] GTPγS was separated from free radiolabel by filtration. The filter bound radioactivity was determined by liquid scintillation counting.

[1] = Table 16, read-out: EC50 Rat APJ Receptor

Row | EC50 [1] [nM] | EC50 (rat APJ receptor, read-out: EC50 Rat APJ Receptor) [nM] | SMILES
1 | 0.361 | – | CCCCCCCCCCCCC(=O)N[C@@H](CCC(=O)NCCOCCOCC(=O)NCCOCCOCC(=O)N[C@@H](CCC(N)=O)C(=O)N[C@@H](CCCNC(=N)N)C(=O)N1CCC[C@H]1C(=O)N[C@@H](CCCCNC(=N)N)C(=O)N[C@@](C)(CC(C)C)C(=O)N[C@@H](CO)C(=O)N[C@@H](Cc1c[nH]cn1)C(=O)N[C@@H](CCCCN)C(=O)NCC(=O)N1CCC[C@H]1C(=O)N[C@@H](CCCC)C(=O)N1CCC[C@H]1C(=O)N[C@@H](Cc1ccc2ccccc2c1)C(=O)O)C(=O)O [compound 404] ({Tridecanoyl-γGlu-AEEA-AEEA}-QRP[hArg][αMeL]SHKGP[Nle]P[2Nal]-OH)
2 | 13.8 | – | CCCCCCCCCCCCC(=O)N[C@@H](CCC(=O)NCCOCCOCC(=O)NCCOCCOCC(=O)N[C@@H](CCC(N)=O)C(=O)N[C@@H](CCCCNC(=N)N)C(=O)N1CCC[C@H]1C(=O)N(C)[C@@H](CCCNC(=N)N)C(=O)N[C@@H](CC1CCCCC1)C(=O)N[C@@H](CO)C(=O)N[C@@H](Cc1c[nH]cn1)C(=O)N[C@@H](CCCCN)C(=O)NCC(=O)N1[C@H](C(=O)N[C@@H](CCCC)C(=O)N2CCC[C@H]2C(=O)N[C@@H](Cc2ccc3ccccc3c2)C(=O)O)C[C@@H]2CCCC[C@@H]21)C(=O)O [compound 405] ({Tridecanoyl-γGlu-AEEA-AEEA}-Q[hArg]P[NMeR][Cha]SHKG[Oic][Nle]P[2Nal]-OH)
3 | 3.79 | – | CCCCCCCCCCCCC(=O)N[C@@H](CCC(=O)NCCOCCOCC(=O)NCCOCCOCC(=O)N[C@@H](CCC(N)=O)C(=O)N[C@@H](CCCNC(=N)N)C(=O)N1CCC[C@H]1C(=O)N(C)[C@@H](CCCNC(=N)N)C(=O)N[C@@H](CC1CCCCC1)C(=O)N[C@@H](CO)C(=O)N[C@@H](Cc1c[nH]cn1)C(=O)N[C@@H](CCCCN)C(=O)NCC(=O)NC(C)(C)C(=O)N[C@@H](CCCC)C(=O)N1CCC[C@H]1C(=O)N[C@@H](Cc1ccc(Cl)cc1)C(=O)O)C(=O)O [compound 414] ({Tridecanoyl-γGlu-AEEA-AEEA}-QRP[NMeR][Cha]SHKG[Aib][Nle]P[Phe(4-Cl)]-OH)
4 | 8.1 | – | CCCCCCCCCCCCC(=O)N[C@@H](CCC(=O)NCCOCCOCC(=O)NCCOCCOCC(=O)N[C@@H](CCC(N)=O)C(=O)N[C@@H](CCCNC(=N)N)C(=O)N1CCC[C@H]1C(=O)N(C)[C@@H](CCCNC(=N)N)C(=O)N[C@@H](CC1CCCCC1)C(=O)N[C@@H](CO)C(=O)N[C@@H](Cc1c[nH]cn1)C(=O)N[C@@H](CCCCN)C(=O)NCC(=O)N1CCC[C@H]1CC(=O)N[C@@H](CCCC)C(=O)N1CCC[C@H]1C(=O)N[C@@H](Cc1ccc(Cl)cc1)C(=O)O)C(=O)O [compound 417] ({Tridecanoyl-γGlu-AEEA-AEEA}-QRP[NMeR][Cha]SHKG[β3hP][Nle]P[Phe(4-Cl)]-OH)
5 | 25 | – | CCCCCCCCCCCCC(=O)N[C@@H](CCC(=O)NCCOCCOCC(=O)NCCOCCOCC(=O)N[C@H](CCC(N)=O)C(=O)N[C@@H](CCCCNC(=N)N)C(=O)N1CCC[C@H]1C(=O)N[C@H](CCCNC(=N)N)C(=O)N[C@@H](CC1CCCCC1)C(=O)N[C@@H](CO)C(=O)N[C@@H](Cc1c[nH]cn1)C(=O)N[C@@H](CCCCN)C(=O)NCC(=O)N1[C@H](C(=O)N[C@@H](CCCC)C(=O)N2CCC[C@H]2C(=O)N[C@@H](C(=O)O)C2Cc3ccccc3C2)C[C@@H]2CCCC[C@@H]21)C(=O)O [compound 431] ({Tridecanoyl-γGlu-AEEA-AEEA}-[dQ][hArg]P[dR][Cha]SHKG[Oic][Nle]P[dIgl]-OH)
6 | 19.8 | – | CCCCCCCCCCCCC(=O)N[C@@H](CCC(=O)NCCOCCOCC(=O)NCCOCCOCC(=O)N[C@H](CCC(N)=O)C(=O)N[C@@H](CCCCNC(=N)N)C(=O)N1CCC[C@H]1C(=O)N[C@H](CCCNC(=N)N)C(=O)N[C@H](C(=O)N[C@@H](CO)C(=O)N[C@@H](Cc1c[nH]cn1)C(=O)N[C@@H](CCCCN)C(=O)NCC(=O)N1[C@H](C(=O)N[C@@H](CCCC)C(=O)N2CCC[C@H]2C(=O)N[C@@H](Cc2ccc(Cl)cc2)C(=O)O)C[C@@H]2CCCC[C@@H]21)C(C)(C)C)C(=O)O [compound 433] ({Tridecanoyl-γGlu-AEEA-AEEA}-[dQ][hArg]P[dR][Tle]SHKG[Oic][Nle]P[Phe(4-Cl)]-OH)
7 | 1.15 | – | CCCCCCCCCCCCC(=O)N[C@@H](CCC(=O)NCCOCCOCC(=O)NCCOCCOCC(=O)N[C@@H](CCC(N)=O)C(=O)N[C@H](CCCNC(=N)N)C(=O)N1CCC[C@H]1C(=O)N(C)[C@@H](CCCCNC(=N)N)C(=O)N[C@@H](CC1CCCCC1)C(=O)N[C@@H](CO)C(=O)N[C@@H](Cc1c[nH]cn1)C(=O)N[C@@H](CCCCN)C(=O)NCC(=O)N1CCC[C@H]1C(=O)N[C@@H](CCCC)C(=O)N1CCC[C@H]1C(=O)N[C@@H](Cc1ccc(Cl)cc1)C(=O)O)C(=O)O [compound 435] ({Tridecanoyl-γGlu-AEEA-AEEA}-Q[dR]P[NMehArg][Cha]SHKGP[Nle]P[Phe(4-Cl)]-OH)
8 | 3.21 | – | CCCCCCCCCCCCC(=O)N[C@@H](CCC(=O)NCCOCCOCC(=O)NCCOCCOCC(=O)N[C@@H](CCC(N)=O)C(=O)N[C@@H](CCCNC(=N)N)C(=O)N1CCC[C@H]1C(=O)N(C)[C@@H](CCCNC(=N)N)C(=O)N[C@H](C(=O)N[C@@H](CO)C(=O)N[C@@H](Cc1c[nH]cn1)C(=O)N[C@@H](CCCCN)C(=O)NCC(=O)N1[C@H](C(=O)N[C@@H](CCCC)C(=O)N2CCC[C@H]2C(=O)N[C@@H](Cc2ccc(Cl)cc2)C(=O)O)C[C@@H]2CCCC[C@@H]21)C(C)(C)C)C(=O)O [compound 439] ({Tridecanoyl-γGlu-AEEA-AEEA}-QRP[NMeR][Tle]SHKG[Oic][Nle]P[Phe(4-Cl)]-OH)
9 | 0.313 | – | C#CC[C@H](NC(=O)[C@H](CC(C)C)NC(=O)[C@H](CCCNC(=N)N)N(C)C(=O)[C@@H]1CCCN1C(=O)[C@H](CCCNC(=N)N)NC(=O)[C@H](CCC(N)=O)NC(=O)COCCOCCNC(=O)COCCOCCNC(=O)CC[C@H](NC(=O)CCCCCCCCCCCC)C(=O)O)C(=O)N[C@@H](Cc1c[nH]cn1)C(=O)N[C@@H](CCCCN)C(=O)NCC(=O)N1CCC[C@H]1C(=O)N[C@@H](CCCC)C(=O)N1CCC[C@H]1C(=O)N[C@@H](Cc1ccc(Cl)cc1)C(=O)O [compound 450] ({Tridecanoyl-γGlu-AEEA-AEEA}-QRP[NMeR]L[Pra]HKGP[Nle]P[Phe(4-Cl)]-OH)
10 | 31.7 | – | CCCCCCCCCCCCC(=O)N[C@@H](CCC(=O)NCCOCCOCC(=O)NCCOCCOCC(=O)N[C@H](CCC(N)=O)C(=O)N[C@@H](CCCCNC(=N)N)C(=O)N1CCC[C@H]1C(=O)N[C@H](CCCNC(=N)N)C(=O)N[C@@H](CC1CCCCC1)C(=O)N[C@@H](CO)C(=O)NC(CC)(CC)C(=O)N[C@@H](CCCCN)C(=O)NCC(=O)N1[C@H](C(=O)N[C@@H](CCCC)C(=O)N2CCC[C@H]2C(=O)N[C@@H](Cc2ccc(Cl)cc2)C(=O)O)C[C@@H]2CCCC[C@@H]21)C(=O)O [compound 451] ({Tridecanoyl-γGlu-AEEA-AEEA}-[dQ][hArg]P[dR][Cha]S[Deg]KG[Oic][Nle]P[Phe(4-Cl)]-OH)
11 | 10.3 | – | CCCCCCCCCCCCC(=O)N[C@@H](CCC(=O)NCCOCCOCC(=O)NCCOCCOCC(=O)N[C@H](CCC(N)=O)C(=O)N[C@@H](CCCCNC(=N)N)C(=O)NC(CC)(CC)C(=O)N[C@H](CCCNC(=N)N)C(=O)N[C@@H](CC1CCCCC1)C(=O)N[C@@H](CO)C(=O)N[C@@H](Cc1c[nH]cn1)C(=O)N[C@@H](CCCCN)C(=O)NCC(=O)N1[C@H](C(=O)N[C@@H](CCCC)C(=O)N2CCC[C@H]2C(=O)N[C@@H](Cc2ccc(Cl)cc2)C(=O)O)C[C@@H]2CCCC[C@@H]21)C(=O)O [compound 455] ({Tridecanoyl-γGlu-AEEA-AEEA}-[dQ][hArg][Deg][dR][Cha]SHKG[Oic][Nle]P[Phe(4-Cl)]-OH)
12 | 0.23 | – | CCCCCCCCCCCCC(=O)N[C@@H](CCC(=O)NCCOCCOCC(=O)NCCOCCOCC(=O)N[C@@H](CCC(N)=O)C(=O)N[C@@H](CCCNC(=N)N)C(=O)N1CCC[C@H]1C(=O)N(C)[C@@H](CCCNC(=N)N)C(=O)N(C)[C@@H](CC(C)C)C(=O)N[C@@H](CO)C(=O)N[C@@H](Cc1c[nH]cn1)C(=O)N[C@@H](CCCCN)C(=O)NCC(=O)N1CCC[C@H]1C(=O)N[C@@H](CCCC)C(=O)N1CCC[C@H]1C(=O)N[C@@H](Cc1ccc(Cl)cc1)C(=O)O)C(=O)O [compound 459]
13 | 0.0627 | – | CCCCCCCCCCCCC(=O)N[C@@H](CCC(=O)NCCOCCOCC(=O)NCCOCCOCC(=O)N[C@@H](CCC(N)=O)C(=O)N[C@@H](CCCCNC(=N)N)C(=O)N1CCC[C@H]1C(=O)N(C)[C@@H](CCCNC(=N)N)C(=O)N[C@@](C)(CC(C)C)C(=O)N[C@@H](CO)C(=O)N[C@@H](Cc1c[nH]cn1)C(=O)N[C@@H](CCCCN)C(=O)NCC(=O)N1CCC[C@H]1C(=O)N[C@@H](CCCC)C(=O)N1CCC[C@H]1C(=O)N[C@@H](Cc1ccc(Cl)cc1)C(=O)O)C(=O)O [compound 460]
14 | 0.175 | – | CCCCCCCCCCCCC(=O)N[C@@H](CCC(=O)NCCOCCOCC(=O)NCCOCCOCC(=O)N[C@@H](CCC(N)=O)C(=O)N[C@@H](CCCNC(=N)N)C(=O)N1CCC[C@H]1C(=O)N[C@@H](CCC(N)=O)C(=O)N[C@@H](CC(C)C)C(=O)N[C@@H](CO)C(=O)N[C@@H](Cc1c[nH]cn1)C(=O)N[C@@H](CCCCN)C(=O)NCC(=O)N1CCC[C@H]1C(=O)N[C@@H](CCCC)C(=O)N1CCC[C@H]1C(=O)N[C@@H](Cc1ccc(Cl)cc1)C(=O)O)C(=O)O [compound 465] ({Tridecanoyl-γGlu-AEEA-AEEA}-QRPQLSHKGP[Nle]P[Phe(4-Cl)]-OH)
15 | – | 0.147 | CCCCCC(=O)N[C@@H](CCC(=O)NCCOCCOCC(=O)NCCOCCOCC(=O)N[C@@H](CCC(N)=O)C(=O)N[C@@H](CCCNC(=N)N)C(=O)N1CCC[C@H]1C(=O)N(C)[C@@H](CCCNC(=N)N)C(=O)N[C@@H](CC(C)C)C(=O)N[C@@H](CO)C(=O)N[C@@H](Cc1c[nH]cn1)C(=O)N[C@@H](CCCCN)C(=O)NCC(=O)N1CCC[C@H]1C(=O)N[C@@H](CCCC)C(=O)N1CCC[C@H]1C(=O)N[C@@H](Cc1ccc(Cl)cc1)C(=O)O)C(=O)O [compound 492]
